Results on 24 compounds are retold here after patent US10144732B2 (BIOGEN MA INC., priority 2014, dated 2018).

Where a name gives a salt, the structure may show the parent alone. A value given as a limit tells only on which side of the number the result lay.

The target in this test is T1, Human ATX protein (Homo sapiens, UniProt Q13822).
T1 construct: made in house
The test can be described thus: ATX biochemical assay (FRET, FS-3 substrate). Particulars: FRET assay, FS-3 2 μM, ATX 1.0 μg/mL, 30 minutes preincubation, 2 hours reaction at room temperature; read-out: IC50. The source says: ATX (Autotaxin) is a 125 KDa glycoprotein with lysophospholipase D (LPLD) activity that generates the bioactive lipid lysophosphatidic acid (LPA) from lysophosphatidylcholine (LPC). The ATX biochemical assay utilizes a FRET (fluorescence resonance energy transfer) technology platform. The fluorescence signal of FRET substrate FS-3 is quenched due to intra-molecular FRET of a fluorophore to a non-fluorescing quencher (Ferguson, C. G., et al., Org Lett. 2006 May 11; 8(10): 2023-2026, which is incorporated by reference in its entirety). ATX catalyzes the hydrolysis of the substrate which separates the dabsyl quencher from the fluorescein reporter, which becomes fluorescent. The reaction is monitored by a SpectraMax M5 (Molecular Devices, Sunnyvale, Calif.) with at excitation wavelength 485 nm and emission wavelength […].
Fatty acid free-BSA (Sigma A8806): 10 mg/mL in H2O, stored at 4° C.
2×ATX assay buffer: 100 mM Tris, 280 mM NaCl, 10 mM KCl, 2 mM CaCl2, 2 mM MgCl2, pH 7.4.
Human ATX protein: expressed and purified in house. Stored at −80° C.
Substrate FS-3 (Echelon, L-2000): 100 μg in 77.74 μL H2O (1 mM stock), stored at −20° C.
384-well flat bottom plates—Corning #3575.
Compound dilution—All compounds were provided at 10 mM in 100% DMSO. In the first well, 2 μL of 10 mM compound was added to 78 μL of DMSO (1:40 dilution). In subsequent wells 3-fold dilution (total 10 dilutions) were performed.
1×ATX assay buffer was made up with a final concentration of 1 mg/mL fatty acid free-BSA using 2×ATX assay buffer, 10 mg/ml fatty acid free-BSA and ddH2O.
[…]. The final concentration of ATX in the reaction as 1.0 μg/mL.
2 μL per well of compounds was transferred to provide the desired concentration. The plate was centrifuged, then incubated at room temperature for 30 minutes on the shaker.
FS-3 was diluted with 1×ATX assay buffer to a concentration of FS-3 of 10 μM (5×). Then, 10 μL was added per well to the assay plate. The final concentration of FS-3 in the reaction was 2 μM. The plate was centrifuged. The plate was kept shaking at room temperature for 2 hours. Because FS-3 substrate is light sensitive, plates were kept covered and protected from light.
Fluorescence was measured using SpectraMax M5 (excitation at 485 nm/emission at 538 nm, top read).
As a reminder, the IC50 is the concentration at which inhibition is half-maximal. For the compound `CCOC(=O)C1CCC(CC(=O)N2CCc3c(C(F)(F)F)nn(Cc4ccc(Cl)cc4Cl)c3C2)CC1` (stereo not drawn) [Example 1-9, Ethyl 4-(2-(1-(2,4-dichlorobenzyl)-3-(trifluoromethyl)-4,5-dihydro-1H-pyrazolo[3,4-c]pyridin-6(7H)-yl)-2-oxoethyl)cyclohexanecarboxylate], the IC50 is at most 100 nM.

In the case of `CCOC(=O)C1CCC(CC(=O)N2CCc3c(C(F)(F)F)nn(Cc4ccc(C(F)(F)F)cc4)c3C2)CC1` (stereo not drawn) [Example 1-10, Ethyl 4-(2-oxo-2-(3-(trifluoromethyl)-1-(4-(trifluoromethyl)benzyl)-4,5-dihydro-1H-pyrazolo[3,4-c]pyridin-6(7H)-yl)ethyl)cyclohexanecarboxylate], the IC50 was at most 100 nM.

In the case of `COC(=O)c1ccc(CC(=O)N2CCc3c(C(F)(F)F)nn(Cc4ccc(Cl)cc4F)c3C2)cc1` [Example 1-11, Methyl 4-(2-(1-(4-chloro-2-fluorobenzyl)-3-(trifluoromethyl)-4,5-dihydro-1H-pyrazolo[3,4-c]pyridin-6(7H)-yl)-2-oxoethyl)benzoate], the IC50 was at most 100 nM.

`O=C(Cc1ccc(F)cc1)N1CCc2c(C(F)(F)F)nn(Cc3ccc(Cl)cc3F)c2C1` [Example 1-12, 1-(1-(4-Chloro-2-fluorobenzyl)-3-(trifluoromethyl)-4,5-dihydro-1H-pyrazolo[3,4-c]pyridin-6(7H)-yl)-2-(4-fluorophenyl)ethanone]: the IC50 was at most 100 nM.

Take `CCOC(=O)C1CCC(CC(=O)N2CCc3c(C(F)(F)F)nn(Cc4ccccc4)c3C2)CC1` (stereo not drawn) [Example 1-13, Ethyl 4-(2-(1-benzyl-3-(trifluoromethyl)-4,5-dihydro-1H-pyrazolo[3,4-c]pyridin-6(7H)-yl)-2-oxoethyl)cyclohexanecarboxylate]: the IC50 is at most 100 nM.

With `O=C(CCc1nc2ccccc2s1)N1CCc2c(C(F)(F)F)nn(Cc3ccc(F)cc3)c2C1` [Example 1-14, 3-(Benzo[d]thiazol-2-yl)-1-(1-(4-fluorobenzyl)-3-(trifluoromethyl)-4,5-dihydro-1H-pyrazolo[3,4-c]pyridin-6(7H)-yl)propan-1-one], the IC50 was at most 100 nM.

On to `O=C(CC1CCC(O)CC1)N1CCc2c(C(F)(F)F)nn(Cc3ccc(Cl)cc3F)c2C1` (stereo not drawn) [Example 1-15, 1-(1-(4-Chloro-2-fluorobenzyl)-3-(trifluoromethyl)-4,5-dihydro-1H-pyrazolo[3,4-c]pyridin-6(7H)-yl)-2-(4-hydroxycyclohexyl)ethanone], for which the IC50 is at most 100 nM.

As for `CCOC(=O)C1CCC(CC(=O)N2CCc3c(C(F)(F)F)nn(CC4CCCCC4)c3C2)CC1` (stereo not drawn) [Example 1-16, Ethyl 4-(2-(1-(cyclohexylmethyl)-3-(trifluoromethyl)-4,5-dihydro-1H-pyrazolo[3,4-c]pyridin-6(7H)-yl)-2-oxoethyl)cyclohexanecarboxylate], the IC50 was at most 100 nM.

As to `CCOC(=O)C1CCC(CC(=O)N2CCc3cnn(Cc4ccc(F)cc4)c3C2)CC1` (stereo not drawn) [Example 1-17, Ethyl 4-(2-(1-(4-fluorobenzyl)-4,5-dihydro-1H-pyrazolo[3,4-c]pyridin-6(7H)-yl)-2-oxoethyl)cyclohexanecarboxylate], the IC50 was at most 100 nM.

For `CCOC(=O)C1CCC(CC(=O)N2CCc3c(C(F)(F)F)nn(Cc4cccc(F)c4)c3C2)CC1` (stereo not drawn) [Example 1-18, Ethyl 4-(2-(1-(3-fluorobenzyl)-3-(trifluoromethyl)-4,5-dihydro-1H-pyrazolo[3,4-c]pyridin-6(7H)-yl)-2-oxoethyl)cyclohexanecarboxylate], the IC50 is at most 100 nM.

As to `CCOC(=O)C1CCC(CC(=O)N2CCc3c(C(F)(F)F)nn(Cc4ccccc4F)c3C2)CC1` (stereo not drawn) [Example 1-19, Ethyl 4-(2-(1-(2-fluorobenzyl)-3-(trifluoromethyl)-4,5-dihydro-1H-pyrazolo[3,4-c]pyridin-6(7H)-yl)-2-oxoethyl)cyclohexanecarboxylate], the IC50 was at most 100 nM.

Consider `O=C(C1CCn2cncc2C1)N1CCc2c(C(F)(F)F)nn(Cc3ccc(F)cc3)c2C1` (stereo not drawn) [Example 1-20, (1-(4-Fluorobenzyl)-3-(trifluoromethyl)-4,5-dihydro-1H-pyrazolo[3,4-c]pyridin-6(7H)-yl)(5,6,7,8-tetrahydroimidazo[1,5-a]pyridin-7-yl)methanone], for which the IC50 was above 10000 nM.

On to `CC1CCC(CC(=O)N2CCc3c(C(F)(F)F)nn(Cc4ccc(Cl)cc4F)c3C2)CC1` (stereo not drawn) [Example 1-21, 1-(1-(4-Chloro-2-fluorobenzyl)-3-(trifluoromethyl)-4,5-dihydro-1H-pyrazolo[3,4-c]pyridin-6(7H)-yl)-2-(4-methylcyclohexyl)ethanone], for which the IC50 is at most 100 nM.

Regarding `COC(=O)C1CCC(C(=O)N2CCc3c(C(F)(F)F)nn(Cc4ccc(F)cc4)c3C2)CC1` (stereo not drawn) [Example 1-22, Methyl 4-(1-(4-fluorobenzyl)-3-(trifluoromethyl)-4,5,6,7-tetrahydro-1H-pyrazolo[3,4-c]pyridine-6-carbonyl)cyclohexanecarboxylate], the IC50 is above 10000 nM.

With `CCOC(=O)[C@H]1CC[C@H](CC(=O)N2CCc3c(C(F)(F)F)nn(C4CCCCC4)c3C2)CC1` [Example 1-24, trans-Ethyl 4-(2-(1-cyclohexyl-3-(trifluoromethyl)-4,5-dihydro-1H-pyrazolo[3,4-c]pyridin-6(7H)-yl)-2-oxoethyl)cyclohexanecarboxylate], the IC50 lay in the range of 250 to 500 nM.

As to `CCOC(=O)[C@H]1CC[C@H](CC(=O)N2CCc3c(C(F)(F)F)nn(Cc4ccc(C)cc4)c3C2)CC1` [Example 1-25, trans-Ethyl 4-(2-(1-(4-methylbenzyl)-3-(trifluoromethyl)-4,5-dihydro-1H-pyrazolo[3,4-c]pyridin-6(7H)-yl)-2-oxoethyl)cyclohexanecarboxylate], the IC50 was at most 100 nM.

`CCOC(=O)[C@H]1CC[C@H](CC(=O)N2CCc3c(C(F)(F)F)nn(Cc4ccc(OC)cc4)c3C2)CC1` [Example 1-26, trans-Ethyl 4-(2-(1-(4-methoxylbenzyl)-3-(trifluoromethyl)-4,5-dihydro-1H-pyrazolo[3,4-c]pyridin-6(7H)-yl)-2-oxoethyl)cyclohexanecarboxylate]: the IC50 was at most 100 nM.

In the case of `COC(=O)C1CC2CCC(C1)C2CC(=O)N1CCc2c(C(F)(F)F)nn(Cc3ccc(Cl)cc3F)c2C1` (stereo not drawn) [Example 1-27, Methyl 8-(2-(1-(4-chloro-2-fluorobenzyl)-3-(trifluoromethyl)-4,5-dihydro-1H-pyrazolo[3,4-c]pyridin-6(7H)-yl)-2-oxoethyl)bicyclo[3.2.1]octane-3-carboxylate], the IC50 was at most 100 nM.

With `CCOC(=O)[C@H]1CC[C@H](CC(=O)N2CCc3c(C(F)(F)F)nn(CCc4ccccc4)c3C2)CC1` [Example 1-28, trans-Ethyl 4-(2-oxo-2-(1-phenethyl-3-(trifluoromethyl)-4,5-dihydro-1H-pyrazolo[3,4-c]pyridin-6(7H)-yl)ethyl)cyclohexanecarboxylate], the IC50 fell in the range of 100 to 250 nM.

With `O=C(CC1CCOCC1)N1CCc2c(C(F)(F)F)nn(Cc3ccc(Cl)cc3F)c2C1` [Example 1-29, 1-(1-(4-Chloro-2-fluorobenzyl)-3-(trifluoromethyl)-4,5-dihydro-1H-pyrazolo[3,4-c]pyridin-6(7H)-yl)-2-(tetrahydro-2H-pyran-4-yl)ethanone], the IC50 was at most 100 nM.

In the case of `O=C(CC1CCOCC1)N1CCc2c(C(F)(F)F)nn(Cc3ccc(F)cc3)c2C1` [Example 1-30, 1-(1-(4-Fluorobenzyl)-3-(trifluoromethyl)-4,5-dihydro-1H-pyrazolo[3,4-c]pyridin-6(7H)-yl)-2-(tetrahydro-2H-pyran-4-yl)ethanone], the IC50 is at most 100 nM.

For the compound `O=C(CCc1nnn[nH]1)N1CCc2c(C(F)(F)F)nn(Cc3ccc(Cl)cc3F)c2C1` [Example 1-31, 1-(1-(4-Chloro-2-fluorobenzyl)-3-(trifluoromethyl)-4,5-dihydro-1H-pyrazolo[3,4-c]pyridin-6(7H)-yl)-3-(1H-tetrazol-5-yl)propan-1-one], the IC50 is at most 100 nM.

As for `O=C(CCc1nnn[nH]1)N1CCc2c(C(F)(F)F)nn(Cc3ccc(F)cc3)c2C1` [Example 1-32, 1-(1-(4-Fluorobenzyl)-3-(trifluoromethyl)-4,5-dihydro-1H-pyrazolo[3,4-c]pyridin-6(7H)-yl)-3-(1H-tetrazol-5-yl)propan-1-one], the IC50 is at most 100 nM.

For `O=C(CC1CCN2CCCC2C1)N1CCc2c(C(F)(F)F)nn(Cc3ccc(Cl)cc3F)c2C1` (stereo not drawn) [Example 1-33, 1-(1-(4-Chloro-2-fluorobenzyl)-3-(trifluoromethyl)-4,5-dihydro-1H-pyrazolo[3,4-c]pyridin-6(7H)-yl)-2-(octahydroindolizin-7-yl)ethanone TFA salt], the IC50 was at most 100 nM.
